{"source": "paper PMC7522982", "about": "“PKIS deep dive yields a chemical starting point for dark kinases and a cell active BRSK2 inhibitor” (Scientific Reports, 2020)", "key": {"PIM3 [1]": {"target": "T1, PIM3 (Homo sapiens, UniProt Q86V86)", "design": "purchased Eurofins; method as in earlier work", "conditions": "cited from earlier work"}, "BRSK1": {"target": "T2, BRSK1 (Homo sapiens, UniProt Q8TDC3)", "T2 sequence (Q8TDC3 1-778)": "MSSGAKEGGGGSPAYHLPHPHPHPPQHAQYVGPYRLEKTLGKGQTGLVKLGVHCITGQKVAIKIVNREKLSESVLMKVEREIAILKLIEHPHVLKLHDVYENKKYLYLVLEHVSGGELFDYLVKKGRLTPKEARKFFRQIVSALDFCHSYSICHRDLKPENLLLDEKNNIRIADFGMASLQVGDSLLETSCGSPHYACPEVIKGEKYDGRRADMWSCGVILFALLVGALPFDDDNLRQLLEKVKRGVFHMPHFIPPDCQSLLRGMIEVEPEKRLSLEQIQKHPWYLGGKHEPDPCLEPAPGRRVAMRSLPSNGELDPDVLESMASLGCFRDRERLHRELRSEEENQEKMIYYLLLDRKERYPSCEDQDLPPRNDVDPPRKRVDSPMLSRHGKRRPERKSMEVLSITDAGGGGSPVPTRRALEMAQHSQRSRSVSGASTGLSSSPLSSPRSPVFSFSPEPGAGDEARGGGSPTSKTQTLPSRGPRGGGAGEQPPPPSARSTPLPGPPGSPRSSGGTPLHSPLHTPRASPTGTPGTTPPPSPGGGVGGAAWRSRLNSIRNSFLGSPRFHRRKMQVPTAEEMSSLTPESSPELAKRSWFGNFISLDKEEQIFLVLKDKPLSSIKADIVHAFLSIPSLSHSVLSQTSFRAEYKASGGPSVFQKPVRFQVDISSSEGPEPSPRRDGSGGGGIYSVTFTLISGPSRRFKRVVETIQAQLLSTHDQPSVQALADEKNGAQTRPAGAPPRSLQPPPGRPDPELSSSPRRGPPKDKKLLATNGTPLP", "experiment": "Eurofins kinase enzymatic radiometric assay", "type": "biochemical", "design": "purchased Eurofins", "conditions": "Km of ATP, 9-point curve in duplicate", "excerpt": "(§1) Due to our interest in the activity of GW296115 on several understudied IDG kinases, we collected full dose–response curves for all wild type kinases inhibited ≥ 75% in the DiscoverX panel that were offered by Eurofins. Having data in orthogonal formats is a powerful way to confirm inhibitory activity and adds rigor to our results. Eurofins has kinase enzymatic radiometric assays for 35 of the kinases on this list (Table S2) and a kinase enzymatic LANCE assay for one additional kinase (MAP2K5/MEK5).\n(§2) Eurofins kinase enzymatic radiometric assays were carried out at the Km of ATP in dose–response (9-pt curve in duplicate) for each kinase for which it was offered."}, "PIM2": {"target": "PIM2 (Homo sapiens, UniProt Q9P1W9)", "experiment": "Eurofins kinase enzymatic radiometric assay", "type": "biochemical", "design": "purchased Eurofins", "conditions": "Km of ATP, 9-point curve in duplicate", "excerpt": "as §1, §2"}, "MINK1/MINK": {"target": "MINK1/MINK (Homo sapiens, UniProt Q8N4C8)", "experiment": "Eurofins kinase enzymatic radiometric assay", "type": "biochemical", "design": "purchased Eurofins", "conditions": "Km of ATP, 9-point curve in duplicate", "excerpt": "as §1, §2"}, "AURKB": {"target": "AURKB (Homo sapiens, UniProt Q96GD4)", "sequence (Q96GD4 whole entry)": "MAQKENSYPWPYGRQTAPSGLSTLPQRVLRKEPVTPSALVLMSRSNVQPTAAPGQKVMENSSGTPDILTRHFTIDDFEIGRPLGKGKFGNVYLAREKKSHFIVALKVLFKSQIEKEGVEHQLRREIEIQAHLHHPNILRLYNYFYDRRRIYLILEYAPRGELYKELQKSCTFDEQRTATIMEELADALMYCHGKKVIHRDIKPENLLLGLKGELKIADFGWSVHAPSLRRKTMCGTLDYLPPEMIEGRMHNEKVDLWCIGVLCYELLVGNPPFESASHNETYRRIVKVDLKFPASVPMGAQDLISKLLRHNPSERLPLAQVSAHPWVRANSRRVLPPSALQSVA", "experiment": "Eurofins kinase enzymatic radiometric assay", "type": "biochemical", "design": "purchased Eurofins", "conditions": "Km of ATP, 9-point curve in duplicate", "excerpt": "as §1, §2"}, "AXL": {"target": "AXL (Homo sapiens, UniProt P30530)", "experiment": "Eurofins kinase enzymatic radiometric assay", "type": "biochemical", "design": "purchased Eurofins", "conditions": "Km of ATP, 9-point curve in duplicate", "excerpt": "as §1, §2"}, "PHKG1": {"target": "PHKG1 (Homo sapiens, UniProt Q16816)", "sequence (Q16816 whole entry)": "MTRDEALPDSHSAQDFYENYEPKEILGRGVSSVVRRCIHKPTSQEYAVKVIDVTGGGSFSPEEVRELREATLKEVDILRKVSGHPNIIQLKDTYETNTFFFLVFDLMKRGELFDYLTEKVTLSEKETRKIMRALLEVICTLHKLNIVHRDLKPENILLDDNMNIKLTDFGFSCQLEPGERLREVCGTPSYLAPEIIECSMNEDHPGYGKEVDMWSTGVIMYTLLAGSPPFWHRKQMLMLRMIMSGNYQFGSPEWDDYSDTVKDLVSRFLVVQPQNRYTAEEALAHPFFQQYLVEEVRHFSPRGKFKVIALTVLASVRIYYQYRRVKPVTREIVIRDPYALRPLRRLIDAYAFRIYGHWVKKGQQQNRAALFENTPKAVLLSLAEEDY", "experiment": "Eurofins kinase enzymatic radiometric assay", "type": "biochemical", "design": "purchased Eurofins", "conditions": "Km of ATP, 9-point curve in duplicate", "excerpt": "as §1, §2"}, "DAPK2": {"target": "DAPK2 (Homo sapiens, UniProt Q9UIK4)", "sequence (Q9UIK4 whole entry)": "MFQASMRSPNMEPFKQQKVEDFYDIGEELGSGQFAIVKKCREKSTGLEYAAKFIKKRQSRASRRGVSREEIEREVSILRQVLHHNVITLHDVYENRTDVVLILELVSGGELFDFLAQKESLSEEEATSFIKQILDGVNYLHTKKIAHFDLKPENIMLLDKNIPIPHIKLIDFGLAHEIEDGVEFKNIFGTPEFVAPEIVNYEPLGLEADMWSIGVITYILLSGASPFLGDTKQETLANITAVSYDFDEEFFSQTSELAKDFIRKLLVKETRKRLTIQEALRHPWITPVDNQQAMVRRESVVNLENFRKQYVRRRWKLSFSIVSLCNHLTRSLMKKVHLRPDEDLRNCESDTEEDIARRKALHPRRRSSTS", "experiment": "Eurofins kinase enzymatic radiometric assay", "type": "biochemical", "design": "purchased Eurofins", "conditions": "Km of ATP, 9-point curve in duplicate", "excerpt": "as §1, §2"}, "FLT3": {"target": "FLT3 (Homo sapiens, UniProt P36888)", "experiment": "Eurofins kinase enzymatic radiometric assay", "type": "biochemical", "design": "purchased Eurofins", "conditions": "Km of ATP, 9-point curve in duplicate", "excerpt": "as §1, §2"}, "PIM3 [2]": {"target": "T1, PIM3", "experiment": "Eurofins kinase enzymatic radiometric assay", "type": "biochemical", "design": "purchased Eurofins", "conditions": "Km of ATP, 9-point curve in duplicate", "excerpt": "as §1, §2"}, "STK17B/DRAK2": {"target": "T3, STK17B/DRAK2 (Homo sapiens, UniProt O94768)", "T3 sequence (O94768 1-372)": "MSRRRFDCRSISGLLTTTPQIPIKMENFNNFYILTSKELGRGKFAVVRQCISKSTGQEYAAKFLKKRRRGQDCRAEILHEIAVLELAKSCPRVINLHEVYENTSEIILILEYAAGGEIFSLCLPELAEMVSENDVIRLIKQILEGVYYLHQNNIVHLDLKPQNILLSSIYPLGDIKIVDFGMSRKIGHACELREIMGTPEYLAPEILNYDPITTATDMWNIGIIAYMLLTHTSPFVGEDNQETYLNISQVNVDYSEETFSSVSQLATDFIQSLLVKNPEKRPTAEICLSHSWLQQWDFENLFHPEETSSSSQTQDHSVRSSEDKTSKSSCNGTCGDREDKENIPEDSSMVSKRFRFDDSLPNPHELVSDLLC", "experiment": "Eurofins kinase enzymatic radiometric assay", "type": "biochemical", "design": "purchased Eurofins", "conditions": "Km of ATP, 9-point curve in duplicate", "excerpt": "as §1, §2"}, "SGK1/SGK": {"target": "SGK1/SGK (Homo sapiens, UniProt O00141)", "sequence (O00141 whole entry)": "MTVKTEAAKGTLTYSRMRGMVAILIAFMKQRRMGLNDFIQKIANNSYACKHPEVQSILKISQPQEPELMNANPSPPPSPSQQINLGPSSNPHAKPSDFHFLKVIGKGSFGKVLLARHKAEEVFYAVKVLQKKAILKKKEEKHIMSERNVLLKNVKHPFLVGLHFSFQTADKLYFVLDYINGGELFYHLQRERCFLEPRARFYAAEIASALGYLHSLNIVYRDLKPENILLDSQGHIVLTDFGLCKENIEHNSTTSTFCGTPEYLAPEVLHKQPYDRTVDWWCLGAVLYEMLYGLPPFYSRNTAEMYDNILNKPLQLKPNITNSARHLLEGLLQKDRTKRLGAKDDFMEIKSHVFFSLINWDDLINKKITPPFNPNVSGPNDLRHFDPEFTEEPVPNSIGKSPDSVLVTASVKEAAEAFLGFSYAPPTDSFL", "experiment": "Eurofins kinase enzymatic radiometric assay", "type": "biochemical", "design": "purchased Eurofins", "conditions": "Km of ATP, 9-point curve in duplicate", "excerpt": "as §1, §2"}, "PRKG2/PKG2": {"target": "PRKG2/PKG2 (Homo sapiens, UniProt Q13237)", "experiment": "Eurofins kinase enzymatic radiometric assay", "type": "biochemical", "design": "purchased Eurofins", "conditions": "Km of ATP, 9-point curve in duplicate", "excerpt": "as §1, §2"}, "SGK3": {"target": "SGK3 (Homo sapiens, UniProt Q96BR1)", "experiment": "Eurofins kinase enzymatic radiometric assay", "type": "biochemical", "design": "purchased Eurofins", "conditions": "Km of ATP, 9-point curve in duplicate", "excerpt": "as §1, §2"}, "STK17A/DRAK1": {"target": "STK17A/DRAK1 (Homo sapiens, UniProt Q9UEE5)", "sequence (Q9UEE5 whole entry)": "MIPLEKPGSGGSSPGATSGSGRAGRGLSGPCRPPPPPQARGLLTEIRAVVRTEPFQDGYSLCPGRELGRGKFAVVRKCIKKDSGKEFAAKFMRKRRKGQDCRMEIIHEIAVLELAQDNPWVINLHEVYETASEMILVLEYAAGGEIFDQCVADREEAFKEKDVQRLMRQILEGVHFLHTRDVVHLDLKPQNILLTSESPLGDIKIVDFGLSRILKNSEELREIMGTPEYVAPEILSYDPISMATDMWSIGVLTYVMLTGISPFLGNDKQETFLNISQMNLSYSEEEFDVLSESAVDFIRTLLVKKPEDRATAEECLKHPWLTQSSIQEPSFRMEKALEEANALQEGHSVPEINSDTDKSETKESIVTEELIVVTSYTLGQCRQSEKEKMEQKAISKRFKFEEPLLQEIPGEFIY", "experiment": "Eurofins kinase enzymatic radiometric assay", "type": "biochemical", "design": "purchased Eurofins", "conditions": "Km of ATP, 9-point curve in duplicate", "excerpt": "as §1, §2"}, "MYLK/MLCK/smMLCK": {"target": "MYLK/MLCK/smMLCK (Homo sapiens, UniProt Q15746)", "sequence (Q15746 whole entry)": "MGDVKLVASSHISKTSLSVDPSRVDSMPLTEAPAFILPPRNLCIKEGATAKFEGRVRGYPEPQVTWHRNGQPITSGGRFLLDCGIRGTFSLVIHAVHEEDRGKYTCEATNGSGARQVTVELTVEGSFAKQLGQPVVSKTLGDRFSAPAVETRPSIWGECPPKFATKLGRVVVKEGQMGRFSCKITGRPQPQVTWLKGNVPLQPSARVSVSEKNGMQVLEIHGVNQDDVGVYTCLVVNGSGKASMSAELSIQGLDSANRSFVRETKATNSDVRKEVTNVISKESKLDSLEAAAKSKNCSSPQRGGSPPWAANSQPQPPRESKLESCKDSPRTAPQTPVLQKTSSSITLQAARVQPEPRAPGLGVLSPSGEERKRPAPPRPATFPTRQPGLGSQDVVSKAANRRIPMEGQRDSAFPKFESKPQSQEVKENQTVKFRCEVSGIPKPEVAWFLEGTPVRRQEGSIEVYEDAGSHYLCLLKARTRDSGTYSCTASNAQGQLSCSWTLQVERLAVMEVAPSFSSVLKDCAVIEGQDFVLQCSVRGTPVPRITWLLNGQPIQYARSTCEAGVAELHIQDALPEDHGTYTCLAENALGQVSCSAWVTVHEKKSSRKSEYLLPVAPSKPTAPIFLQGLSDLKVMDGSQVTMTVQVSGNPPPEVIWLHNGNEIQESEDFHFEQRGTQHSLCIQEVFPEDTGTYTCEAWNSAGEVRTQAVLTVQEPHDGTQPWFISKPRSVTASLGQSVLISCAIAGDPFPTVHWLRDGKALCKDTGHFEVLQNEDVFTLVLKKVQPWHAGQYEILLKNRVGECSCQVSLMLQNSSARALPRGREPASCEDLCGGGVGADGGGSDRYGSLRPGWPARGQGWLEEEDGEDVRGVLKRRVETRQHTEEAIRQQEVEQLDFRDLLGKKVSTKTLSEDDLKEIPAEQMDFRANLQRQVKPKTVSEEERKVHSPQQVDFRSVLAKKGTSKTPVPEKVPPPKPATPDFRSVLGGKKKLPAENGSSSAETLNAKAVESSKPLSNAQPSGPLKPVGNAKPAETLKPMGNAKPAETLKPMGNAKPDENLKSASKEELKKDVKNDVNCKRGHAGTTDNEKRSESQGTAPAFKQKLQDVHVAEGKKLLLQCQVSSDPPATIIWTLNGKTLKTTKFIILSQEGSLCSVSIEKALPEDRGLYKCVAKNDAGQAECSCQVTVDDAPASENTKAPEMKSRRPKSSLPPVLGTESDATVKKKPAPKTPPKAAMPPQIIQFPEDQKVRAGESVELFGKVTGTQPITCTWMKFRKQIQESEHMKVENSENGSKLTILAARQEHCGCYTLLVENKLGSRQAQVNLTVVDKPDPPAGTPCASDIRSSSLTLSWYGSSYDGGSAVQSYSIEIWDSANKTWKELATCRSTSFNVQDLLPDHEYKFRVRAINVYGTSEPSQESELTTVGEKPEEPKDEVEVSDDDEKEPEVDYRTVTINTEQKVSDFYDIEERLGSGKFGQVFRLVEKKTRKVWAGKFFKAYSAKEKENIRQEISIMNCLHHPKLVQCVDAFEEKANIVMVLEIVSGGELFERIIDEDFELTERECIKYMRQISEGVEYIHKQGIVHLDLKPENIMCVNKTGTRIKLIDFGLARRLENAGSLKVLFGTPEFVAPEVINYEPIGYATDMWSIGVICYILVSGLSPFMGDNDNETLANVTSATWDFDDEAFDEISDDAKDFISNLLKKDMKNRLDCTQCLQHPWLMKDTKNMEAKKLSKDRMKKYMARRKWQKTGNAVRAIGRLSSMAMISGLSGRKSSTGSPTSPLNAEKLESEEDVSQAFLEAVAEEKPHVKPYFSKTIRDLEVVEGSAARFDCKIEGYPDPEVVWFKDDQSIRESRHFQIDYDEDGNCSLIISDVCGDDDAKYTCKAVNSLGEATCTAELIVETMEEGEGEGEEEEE", "experiment": "Eurofins kinase enzymatic radiometric assay", "type": "biochemical", "design": "purchased Eurofins", "conditions": "Km of ATP, 9-point curve in duplicate", "excerpt": "as §1, §2"}, "MAP3K11/MLK3": {"target": "MAP3K11/MLK3 (Homo sapiens, UniProt Q16584)", "sequence (Q16584 whole entry)": "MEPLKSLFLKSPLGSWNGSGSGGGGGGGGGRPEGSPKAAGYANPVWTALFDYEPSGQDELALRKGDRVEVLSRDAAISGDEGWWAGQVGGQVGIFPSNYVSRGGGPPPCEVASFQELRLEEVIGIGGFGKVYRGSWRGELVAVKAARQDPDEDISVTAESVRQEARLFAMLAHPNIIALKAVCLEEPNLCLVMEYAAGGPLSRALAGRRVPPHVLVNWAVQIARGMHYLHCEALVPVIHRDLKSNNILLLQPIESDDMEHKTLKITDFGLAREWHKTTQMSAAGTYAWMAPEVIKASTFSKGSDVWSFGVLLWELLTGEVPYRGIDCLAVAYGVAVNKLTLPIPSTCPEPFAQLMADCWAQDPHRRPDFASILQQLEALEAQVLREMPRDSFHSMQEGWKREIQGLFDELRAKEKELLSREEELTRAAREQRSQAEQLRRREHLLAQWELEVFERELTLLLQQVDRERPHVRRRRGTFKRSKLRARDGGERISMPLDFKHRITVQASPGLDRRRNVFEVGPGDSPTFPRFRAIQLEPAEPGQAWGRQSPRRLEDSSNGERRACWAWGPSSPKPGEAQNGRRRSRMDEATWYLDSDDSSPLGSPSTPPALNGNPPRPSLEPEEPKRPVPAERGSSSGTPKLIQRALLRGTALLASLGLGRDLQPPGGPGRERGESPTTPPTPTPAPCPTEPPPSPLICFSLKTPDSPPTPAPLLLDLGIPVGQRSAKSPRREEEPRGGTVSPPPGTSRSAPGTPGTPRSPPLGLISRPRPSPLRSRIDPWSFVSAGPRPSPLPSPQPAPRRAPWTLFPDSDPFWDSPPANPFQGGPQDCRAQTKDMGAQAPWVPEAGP", "experiment": "Eurofins kinase enzymatic radiometric assay", "type": "biochemical", "design": "purchased Eurofins", "conditions": "Km of ATP, 9-point curve in duplicate", "excerpt": "as §1, §2"}, "DMPK": {"target": "DMPK (Homo sapiens, UniProt Q09013)", "experiment": "Eurofins kinase enzymatic radiometric assay", "type": "biochemical", "design": "purchased Eurofins", "conditions": "Km of ATP, 9-point curve in duplicate", "excerpt": "as §1, §2"}, "AURKC": {"target": "AURKC (Homo sapiens, UniProt Q9UQB9)", "experiment": "Eurofins kinase enzymatic radiometric assay", "type": "biochemical", "design": "purchased Eurofins", "conditions": "Km of ATP, 9-point curve in duplicate", "excerpt": "as §1, §2"}}, "data": [{"smiles": "COc1ccc2[nH]c3c4[nH]c5ccc(OC)cc5c4c4c(c3c2c1)C(=O)NC4=O", "note": "[GW296115]", "values": [{"measurement": "TSA ΔTm at 10 μM (°C)", "setting": "PIM3 [1]", "value": 12.0, "unit": "°C"}, {"measurement": "IC50", "setting": "BRSK1", "value": 21, "unit": "nM"}, {"measurement": "IC50", "setting": "PIM2", "value": 10, "unit": "nM"}, {"measurement": "IC50", "setting": "MINK1/MINK", "value": 35, "unit": "nM"}, {"measurement": "IC50", "setting": "AURKB", "value": 94, "unit": "nM"}, {"measurement": "IC50", "setting": "AXL", "value": 160, "unit": "nM"}, {"measurement": "IC50", "setting": "PHKG1", "value": 20, "unit": "nM"}, {"measurement": "IC50", "setting": "DAPK2", "value": 21, "unit": "nM"}, {"measurement": "IC50", "setting": "FLT3", "value": 37, "unit": "nM"}, {"measurement": "IC50", "setting": "PIM3 [2]", "value": 89, "unit": "nM"}, {"measurement": "IC50", "setting": "STK17B/DRAK2", "value": 5.5, "unit": "nM"}, {"measurement": "IC50", "setting": "SGK1/SGK", "value": 710, "unit": "nM"}, {"measurement": "IC50", "setting": "PRKG2/PKG2", "value": 6.3, "unit": "nM"}, {"measurement": "IC50", "setting": "SGK3", "value": "> 10000", "unit": "nM"}, {"measurement": "IC50", "setting": "STK17A/DRAK1", "value": 28, "unit": "nM"}, {"measurement": "IC50", "setting": "MYLK/MLCK/smMLCK", "value": 49, "unit": "nM"}, {"measurement": "IC50", "setting": "MAP3K11/MLK3", "value": 1.5, "unit": "nM"}, {"measurement": "IC50", "setting": "DMPK", "value": "> 10000", "unit": "nM"}, {"measurement": "IC50", "setting": "AURKC", "value": 4100, "unit": "nM"}]}]}
